Data as given in article PMC11206766, “QbD-Based Development and Evaluation of Pazopanib Hydrochloride Extrudates Prepared by Hot-Melt Extrusion Technique: In Vitro and In Vivo Evaluation” (Pharmaceutics, 2024).

How the values were obtained:
[1] = Oral pharmacokinetic / bioavailability study in rabbits; format: in vivo, New Zealand white rabbits; conditions: rabbit, equivalent to 200 mg pazopanib
Description: A bioavailability study was carried out to assess the drug absorption and pharmacokinetic parameters of different prepared formulations. A suitable animal was selected, and in vivo studies were performed in accordance with the ethical guidelines for animal care and use committee.
New Zealand white rabbits (Species and strain: […]) (5–6 months older, 2.0 ± 0.2 kg, 34–50 cm without tail) were utilized in this study. Animals were maintained at standard environmental conditions of temperature 24 ± 2 °C, humidity (55 ± 5%), under 12:12 h light (08:00–20:00 h)/dark cycle. Animals had free access to rodent chow and tap water ad libitum. Approval for animal studies was gained by the Institutional Animal Ethics Committee (Protocol no. IAEC; 1888/PO/Re/S/16/ CPCSEA/2022/01), constituted for the purpose of control and supervision of experimental animals and agreed with the globally acknowledged Principles for Laboratory Animal Use and Care as indicated by the National Institutes of Health Guide (NIH Publication No. 85–23, revised 1985). Animals were naive to drug treatments and experimentation, at the beginning of all studies. All tests were conducted at BM College of Pharmaceutical Education and Research (BMCPER), Indore, M.P. between 09:00 and 18:00 h.
Animals (n = 3) were settled into three different groups. First group (control) received Pazopanib drug (control), second group received the marketed pazopanib hydrochloride immediate release tablet (Votrient Tablets, 200 mg), while third group received drug formulations (equivalent to 200 mg of Pazopanib) prepared using HME technique, respectively. Dosage forms were administered orally via gastric intubation. Animals were fasted for 12 h with free access to water prior to drug administration. Rabbits were held in rabbit restrainers during blood sampling. Blood samples were collected in heparinized tubes from ear veins at predetermined time points (0, 0.5, 1, 2, 3, 4, 6, 8, 12, and 24 h) after oral administration. Plasma samples were obtained following centrifugation of blood at 3200× g for 5 min at 2–8 °C and kept frozen at −70 °C until analysis.
Pazopanib plasma concentration was plotted against time to obtain the concentration–time profiles, which were used to determine the peak blood concentration (Cmax) and time to achieve the peak concentration (Tmax). Non-compartmental pharmacokinetic analysis was conducted to calculate the area under the curve from 0 to 24 h [(AUC)0-24). The values of Cmax and Tmax for the test preparation were obtained by actual observations. All data were presented as mean ± standard deviation. In order to determine the area under the curve from 0 to 24 h, a non-compartmental PK study was performed using Win-Nonlin PK/PD software (version 8.1). Comparative blood plasma concentration (µg/mL) at different time points for Pazopanib drug and its formulation are depicted in below Figure 24.

[2] = cited from earlier work
[3] = oral via gastric intubation, fasted, plasma

Cmax [1, 3]: 44.7 µg/mL
Tmax [1, 3]: 2 h
T lag ([1]; oral): 0 h
AUC Last ([1]; oral, 0 to 24 h, non-compartmental): 308.675 µg·h/mL
C Last ([1]; oral, last sampling 24 h): 7.6 µg/mL
Compound: Cc1ccc(Nc2nccc(N(C)c3ccc4c(C)n(C)nc4c3)n2)cc1S(N)(=O)=O.Cl [PZB-Drug/API, Pazopanib Hydrochloride]
BCS class [2]: BCS class II
log P [2]: 3.55
pKa [2]: 2.5
